Target: NR2A-containing NMDA receptor (NR2A subunit) (Rattus norvegicus, UniProt Q00959)
Format: cell-based

NR2A-containing NMDA receptor (NR2A subunit), sequence (Q00959 23-1464, other chains not shown): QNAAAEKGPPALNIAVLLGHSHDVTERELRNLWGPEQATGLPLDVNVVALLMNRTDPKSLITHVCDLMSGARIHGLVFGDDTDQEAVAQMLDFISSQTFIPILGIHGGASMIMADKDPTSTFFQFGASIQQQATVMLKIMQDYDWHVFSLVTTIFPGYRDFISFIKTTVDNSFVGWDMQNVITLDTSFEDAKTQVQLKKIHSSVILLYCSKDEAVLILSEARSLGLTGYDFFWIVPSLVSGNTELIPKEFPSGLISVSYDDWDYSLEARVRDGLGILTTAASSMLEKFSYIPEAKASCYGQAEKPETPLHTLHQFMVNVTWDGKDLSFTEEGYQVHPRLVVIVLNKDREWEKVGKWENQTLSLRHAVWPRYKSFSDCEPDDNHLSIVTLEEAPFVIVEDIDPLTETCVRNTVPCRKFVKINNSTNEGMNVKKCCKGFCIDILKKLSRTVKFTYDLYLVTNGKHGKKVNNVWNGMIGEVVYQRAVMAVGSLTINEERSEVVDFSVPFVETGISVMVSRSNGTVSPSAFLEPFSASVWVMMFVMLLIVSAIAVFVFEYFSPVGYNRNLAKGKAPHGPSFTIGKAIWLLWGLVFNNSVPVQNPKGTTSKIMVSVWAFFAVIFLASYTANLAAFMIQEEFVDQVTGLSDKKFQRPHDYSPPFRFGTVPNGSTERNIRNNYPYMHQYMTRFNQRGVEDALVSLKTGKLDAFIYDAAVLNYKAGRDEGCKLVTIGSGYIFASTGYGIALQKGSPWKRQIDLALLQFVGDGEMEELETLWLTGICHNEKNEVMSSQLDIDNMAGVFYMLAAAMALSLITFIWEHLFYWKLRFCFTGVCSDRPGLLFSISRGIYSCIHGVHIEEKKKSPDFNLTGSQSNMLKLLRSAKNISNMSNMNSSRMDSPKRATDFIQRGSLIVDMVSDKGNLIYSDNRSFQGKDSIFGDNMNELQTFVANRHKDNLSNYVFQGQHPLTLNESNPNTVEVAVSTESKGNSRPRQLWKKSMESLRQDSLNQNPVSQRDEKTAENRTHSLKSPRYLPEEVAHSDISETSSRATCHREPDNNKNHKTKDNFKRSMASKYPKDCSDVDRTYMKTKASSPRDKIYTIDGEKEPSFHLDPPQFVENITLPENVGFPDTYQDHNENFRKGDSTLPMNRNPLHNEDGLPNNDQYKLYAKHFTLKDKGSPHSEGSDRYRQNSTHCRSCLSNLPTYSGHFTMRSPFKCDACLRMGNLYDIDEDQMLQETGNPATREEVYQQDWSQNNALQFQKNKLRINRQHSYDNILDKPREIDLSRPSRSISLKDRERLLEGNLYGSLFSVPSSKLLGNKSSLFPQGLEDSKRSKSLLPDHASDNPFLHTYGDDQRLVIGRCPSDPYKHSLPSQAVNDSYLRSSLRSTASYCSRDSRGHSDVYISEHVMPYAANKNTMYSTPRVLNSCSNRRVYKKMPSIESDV

IC50: 130 ± 40 nM
Structure (SMILES): C[C@H](NC(c1cccc2[nH]c(=O)c(=O)[nH]c12)P(=O)(O)O)c1ccc(Br)cc1 (stereo partly drawn) [PEAQX, ({[(1S)-1-(4-bromophenyl)ethyl]amino}-(2,3-dioxo-1,4-dihydroquinoxalin-5-yl)methyl)phosphonic acid]

— paper PMC3427421 (2012)
